Test results from paper PMC11042424, “Development of a First-in-Class RIPK1 Degrader to Enhance Antitumor Immunity” (Research Square, 2024).

Experiments:
RIPK1 and VHL = target: T1, RIPK1 and VHL (Homo sapiens, UniProt P40337+Q13546); assay: NanoBRET live-cell ternary complex assay; format: cell-based; settings: HEK293 cells co-transfected with nLuc-RIPK1 and VHL-Halo
T1 construct: Addgene backbone 87075 (RIPK1 vector, made in house) N273A; host or cells: HEK293T
Description: Figure 2 LD4172, a RIPK1 PROTAC, induces potent and highly specific degradation of RIPK1 in a panel of cell lines. A, Chemical structures of RIPK1 PROTAC, LD4172, and its negative control, LD4172-NC. […] B, Quantification of RIPK1 levels in both Jurkat and B16F10 cells treated with LD4172 at indicated concentrations for 24 h, followed by Western blotting. C, DC50 and Dmax of LD4172 in various human and mouse cell lines. DC50, the drug concentration causing 50% protein degradation; Dmax, the maximum level of protein degradation. D, RIPK1 degradation kinetics induced by LD4172 treatment (1 μM) and resynthesis kinetics upon washout of LD4172 in both Jurkat and B16F10 cells. […] G, Time-resolved fluorescence resonance energy transfer (TR-FRET) based biochemical binding assay for RIPK1. […] In total, ~10,000 proteins were quantified in the proteomics experiment. […]
Human RIPK1 cDNA insert was cloned into pLenti6.2-ccdB-nLuc plasmid (87075, Addgene, a kind gift from Taipale Lab) using gateway cloning kit (11791020, Thermo) and standard protocol to obtain pLenti6.2-RIPK1-nLuc fusion vector. […] Immediately before reading the plate, prepare 4x concentrated NanoGlo nLuc substrate (N157, Promega) was prepared by diluting the stock into Opti-MEM 1,000-fold, and the NanoGlo substrate was then added into each well to bring the final concentration to 1x. […]

hERG channel = hERG channel (Homo sapiens, UniProt Q12809); assay: hERG channel inhibition assay; settings: at 30 μM
hERG channel, sequence (Q12809 whole entry): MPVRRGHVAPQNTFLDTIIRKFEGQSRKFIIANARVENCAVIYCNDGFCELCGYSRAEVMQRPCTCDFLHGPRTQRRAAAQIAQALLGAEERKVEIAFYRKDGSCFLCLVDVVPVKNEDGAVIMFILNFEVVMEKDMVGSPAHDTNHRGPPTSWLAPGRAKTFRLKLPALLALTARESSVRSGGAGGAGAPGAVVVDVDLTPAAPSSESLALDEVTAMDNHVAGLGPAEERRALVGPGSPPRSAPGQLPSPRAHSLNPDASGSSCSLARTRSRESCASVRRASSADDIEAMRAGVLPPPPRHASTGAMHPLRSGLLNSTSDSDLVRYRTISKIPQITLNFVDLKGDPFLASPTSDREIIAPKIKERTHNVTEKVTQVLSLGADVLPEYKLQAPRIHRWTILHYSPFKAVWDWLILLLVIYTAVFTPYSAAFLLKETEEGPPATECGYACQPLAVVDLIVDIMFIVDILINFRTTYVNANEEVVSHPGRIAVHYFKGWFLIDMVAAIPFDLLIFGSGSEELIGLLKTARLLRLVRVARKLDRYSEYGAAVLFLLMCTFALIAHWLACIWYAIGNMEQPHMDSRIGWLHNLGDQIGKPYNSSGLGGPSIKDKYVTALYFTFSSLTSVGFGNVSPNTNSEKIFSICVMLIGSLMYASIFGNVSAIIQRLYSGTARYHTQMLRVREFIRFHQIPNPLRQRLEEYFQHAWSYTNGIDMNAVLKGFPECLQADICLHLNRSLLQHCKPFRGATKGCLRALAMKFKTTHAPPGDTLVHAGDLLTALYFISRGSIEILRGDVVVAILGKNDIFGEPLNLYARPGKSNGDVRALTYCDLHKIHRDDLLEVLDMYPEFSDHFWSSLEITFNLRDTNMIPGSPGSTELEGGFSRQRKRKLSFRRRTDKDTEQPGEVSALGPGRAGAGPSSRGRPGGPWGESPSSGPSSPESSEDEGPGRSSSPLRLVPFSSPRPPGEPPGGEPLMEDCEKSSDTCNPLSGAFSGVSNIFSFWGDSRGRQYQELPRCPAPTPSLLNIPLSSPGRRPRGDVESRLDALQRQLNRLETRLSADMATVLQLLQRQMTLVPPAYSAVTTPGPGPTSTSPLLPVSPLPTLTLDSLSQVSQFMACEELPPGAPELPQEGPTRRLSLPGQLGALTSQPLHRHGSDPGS

SMILES: Cc1ncsc1-c1ccc([C@H](C)NC(=O)[C@@H]2C[C@@H](O)CN2C(=O)[C@@H](NC(=O)CCCCCCCCCCC(=O)NCCCn2cc(-c3ccc4c(c3)CCN4C(=O)Cc3cccc(OC(F)(F)F)c3)c3c(N)ncnc32)C(C)(C)C)cc1 [LD4172]
- ternary complex formation, NanoBRET between RIPK1 and VHL (RIPK1 and VHL): induced NanoBRET between RIPK1 and VHL
- inhibition of hERG (hERG channel): no obvious inhibition
